Assay results taken from ChEMBL document CHEMBL1201862, “PubChem BioAssay data set” (2004).
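Compound exposure: 48 hours, 5 concentrations, 96-well plates. At the GI50, growth is halved.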 Calls of active or inactive are those of the source. Rule as the data show it: active = GI50 up to about 1.1 µM and inactive = higher.

Assays:
Test in all cases: NCI-60 cell line screen, 48 h
NCI-H460 = system: NCI-H460
K562 = system: K562
A498 = system: A498
U-251 = system: U-251
CAKI-1 = system: CAKI-1
UACC-257 = system: UACC-257
ACHN = system: ACHN
SK-MEL-5 = system: SK-MEL-5
MOLT-4 = system: MOLT-4
DLD-1 = system: DLD-1
SW-620 = system: SW-620
SNB-75 = system: SNB-75
SK-MEL-2 = system: SK-MEL-2
EKVX = system: EKVX
COLO 205 = system: COLO 205
A549 = system: A549
NCI-H23 = system: NCI-H23
SR = system: SR

Measured: GI50

C[C@]12CCC(=O)C=C1CC[C@@H]1[C@@H]2[C@@H](O)C[C@@]2(C)[C@H]1CC[C@]2(O)C(=O)COC(=O)COCC(=O)O
inactive: NCI-H460 > 100 µM | K562 > 100 µM | A498 > 100 µM | U-251 > 100 µM | CAKI-1 > 100 µM | UACC-257 > 100 µM | ACHN > 100 µM | SK-MEL-5 > 100 µM | MOLT-4 > 100 µM | DLD-1 > 100 µM | SW-620 > 100 µM | SNB-75 > 100 µM | SK-MEL-2 > 100 µM | EKVX > 100 µM | COLO 205 > 100 µM | A549 > 100 µM | NCI-H23 > 100 µM

O=C(C#Cc1cnc(O)nc1O)c1ccccc1Cl
inactive: NCI-H460 24.3 µM | K562 4.83 µM | A498 17.9 µM | U-251 17.9 µM | CAKI-1 17.1 µM | UACC-257 14.7 µM | ACHN 17.3 µM | SK-MEL-5 15 µM | MOLT-4 10.3 µM | DLD-1 15.5 µM | SW-620 14.2 µM | SNB-75 19.9 µM | SK-MEL-2 16.2 µM | EKVX 20 µM | COLO 205 15.7 µM | A549 79.1 µM | NCI-H23 17.1 µM

Cn1c(=O)nc2n(-c3ccc(O)cc3)c3ccccc3nc-2c1=O
inactive: NCI-H460 11 µM | K562 > 100 µM | A498 > 100 µM | U-251 14 µM | CAKI-1 13.7 µM | UACC-257 > 100 µM | ACHN 2.78 µM | SK-MEL-5 18.7 µM | MOLT-4 54.5 µM | DLD-1 > 100 µM | SW-620 76.4 µM | SNB-75 9.23 µM | SK-MEL-2 82.2 µM | EKVX > 100 µM | COLO 205 23.9 µM | A549 36.7 µM | NCI-H23 23.3 µM

CC1CCC(C(C)C)C(O[C@@H]2OC(=O)C[C@@H]2Sc2ccccc2)C1 (stereo not given in full)
inactive: NCI-H460 24.5 µM | K562 19.1 µM | A498 28.6 µM | U-251 > 10 µM | CAKI-1 23.3 µM | UACC-257 16.3 µM | ACHN 20 µM | SK-MEL-5 16.2 µM | MOLT-4 12 µM | DLD-1 33.1 µM | SW-620 18.2 µM | SNB-75 33.3 µM | SK-MEL-2 17.5 µM | EKVX 34 µM | COLO 205 18.5 µM | A549 24.9 µM | NCI-H23 26.2 µM

COc1cc(-c2cc(O)c3ccccc3n2)cc(OC)c1OC
inactive: NCI-H460 > 75 µM | K562 > 75 µM | U-251 > 75 µM | SR > 75 µM | UACC-257 > 75 µM | ACHN > 75 µM | MOLT-4 > 75 µM | DLD-1 > 75 µM | SW-620 > 75 µM | SNB-75 50.5 µM | EKVX > 75 µM | COLO 205 > 75 µM | A549 > 75 µM | NCI-H23 > 75 µM

CC(C)(CN1CCCCC1)C(=O)/C=C/c1ccccc1
inactive: NCI-H460 22.4 µM | K562 3.4 µM | A498 18.5 µM | U-251 21.5 µM | CAKI-1 17.3 µM | UACC-257 14.5 µM | ACHN 25.8 µM | SK-MEL-5 11.9 µM | MOLT-4 10.3 µM | DLD-1 13.7 µM | SW-620 11.6 µM | SNB-75 11.6 µM | SK-MEL-2 14.4 µM | EKVX 7.13 µM | COLO 205 16.4 µM | A549 16.9 µM | NCI-H23 15.1 µM

CCC(C)(C)NC1=C(NC(C)=O)C(=O)c2ccccc2C1=O
inactive: NCI-H460 39.5 µM | K562 20.8 µM | U-251 36.1 µM | SR 31.3 µM | UACC-257 20.3 µM | ACHN 15.2 µM | SK-MEL-5 13.5 µM | MOLT-4 13.9 µM | DLD-1 43.1 µM | SW-620 35.1 µM | SNB-75 > 75 µM | SK-MEL-2 21 µM | EKVX > 75 µM | COLO 205 29.4 µM | A549 > 75 µM | NCI-H23 18.9 µM
